For 29 molecules, IC50 results are on record in patent US20080051419A1, “AMINE DERIVATIVES USEFUL AS ANTICANCER AGENTS” (PFIZER INC., priority 2006, published 2008).

Like-named read-outs stand apart in the source and are kept apart here.

The assay has as its target T1, Akt1 (Homo sapiens, UniProt P31749, S473D).
T1 construct: The version of Akt used in these studies lacks the pleckstrin homology (PH) domain
In words: Akt1 kinase assay, fluorescence polarization (IMAP). Type of assay: biochemical. The method, then: The Akt1 kinase assay is based on the measurement of fluorescence polarization using IMAP technology (Molecular Devices Corporation #R8062). Two microliters of inhibitor compounds diluted to a concentration of 10 millimolar are added to column 2 of a polypropylene 96-well plate containing 98 microliters of 100% DMSO; the wells in columns 3-12 contain 60 microliters of 100% DMSO. The various test compounds are serially diluted 1:3 across the plate by pipetting 30 microliters of compounds into wells containing 60 microliters of 100% DMSO. Column 12 receives DMSO only and is used as a negative control for inhibition. The components of the wells are mixed and 15 microliters of each well are transferred to another 96-well plate already containing 60 microliters of reaction buffer (RB: 10 mM Tris-HCl, pH 7.5, 10 mM MgCl2, 0.1 mM EGTA, 0.01% Triton-X100 (Sigma #X-100), freshly added 1 mM DTT). After mixing, the […] reactions are assembled. First, five microliters of the above compound/reaction buffer mixture is transferred to the bottom of a 96-well black polystyrene reaction plate (Costar, #3694). Next, ten microliters of a solution containing 4 micromolar ATP and 40 nanomolar fluorescent-labeled Crosstide (Tamara-labeled […] peptide) are added. Then, 5 microliters (1.5 nanograms) of Akt protein in RB are added. The version of Akt used in these studies lacks the pleckstrin homology (PH) domain, and contains an aspartic acid residue in place of a serine residue in position 473 within the Akt1 hydrophobic motif. The Akt1 protein contains a polyhistidine tag at the amino terminus and is prephosphorylated on threonine at position 308 in order to activate latent kinase activity. Once the reaction components and inhibitors are assembled, the plates are gently tapped, covered with foil, and then incubated at ambient temperature for 30 minutes. IMAP beads (Molecular Devices) are then added (60 microliters of a 1:400 dilution of beads in RB). Plates are read on a Victor Plate Reader with the following settings: CW lamp filter: 544 nm, emission filter: 615 nm. Control values from wells lacking Akt protein are subtracted from the gross readings, and IC50 values are calculated using XLDA.

The mark [1] stands for this setting: Table 1, concentration bins, read-out: Concentration Range at which exemplary compounds of formula I inhibit Akt kinase activity.
Where [2] appears, read: average Akt kinase activity (IC50), read-out: Avg Akt kinase, μM (50% inhibition).
Setting [3] is: Table 3, read-out: Avg Akt kinase, μM (50% inhibition).

T1 sequence (P31749 118-480 S473D limits assumed, species assumed): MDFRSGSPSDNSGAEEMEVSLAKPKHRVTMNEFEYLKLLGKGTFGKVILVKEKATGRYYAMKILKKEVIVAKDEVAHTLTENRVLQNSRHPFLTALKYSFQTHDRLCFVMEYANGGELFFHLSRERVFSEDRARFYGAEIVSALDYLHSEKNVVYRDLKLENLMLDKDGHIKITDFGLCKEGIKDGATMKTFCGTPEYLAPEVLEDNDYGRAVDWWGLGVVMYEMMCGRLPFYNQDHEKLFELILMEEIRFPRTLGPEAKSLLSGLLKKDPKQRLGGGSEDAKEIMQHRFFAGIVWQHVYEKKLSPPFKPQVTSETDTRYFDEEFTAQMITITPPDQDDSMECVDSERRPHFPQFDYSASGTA

`N#Cc1c[nH]c2ncnc(N3CC[C@](N)(CNC(=O)c4ccc(Cl)cc4F)C3)c12` [Example 99, N-{[(3S)-3-amino-1-(5-cyano-7H-pyrrolo[2,3-d]pyrimidin-4-yl)pyrrolidin-3-yl]methyl}-4-chloro-2-fluorobenzamide]: the IC50 is 0.0101 to 0.1 µM under setting [1] and 0.0186 µM under setting [2].

As to `N#Cc1c[nH]c2ncnc(N3CCC(N)(COc4cccc(C(F)(F)F)c4)C3)c12` (centres unmarked) [Example 63, 4-(3-amino-3-{[3-(trifluoromethyl)phenoxy]methyl}pyrrolidin-1-yl)-7H-pyrrolo[2,3-d]pyrimidine-5-carbonitrile], the IC50 under setting [1] fell in the range of 0.0101 to 0.1 µM and the IC50 (Table 4, read-out: Avg Akt kinase, μM (50% inhibition)) was 0.0641 µM.

Regarding `N#Cc1c[nH]c2ncnc(N3CC[C@](N)(CNC(=O)c4ccc(Cl)cc4)C3)c12` [Example 86], the IC50 by setting is: under setting [1], 0.0101 to 0.1 µM; under setting [2], 0.0175 µM.

For the molecule `NC1(CNc2cccc(Oc3ccccc3)c2)CCN(c2ncnc3[nH]cc(Cl)c23)C1` (centres unmarked) [Example 6, 1-(5-Chloro-7H-pyrrolo[2,3-d]pyrimidin-4-yl)-3-[(3-phenoxy-phenylamino)-methyl]-pyrrolidin-3-ylamine], the IC50 is 0.0101 to 0.1 µM under setting [1] and 0.0134 µM under setting [3].

For `Cc1c[nH]c2ncnc(N3CCC(N)(CNc4cccc(C(F)(F)F)c4)C3)c12` (centres unmarked) [Example 23, 1-(5-methyl-7H-pyrrolo[2,3-d]pyrimidin-4-yl)-3-({[3-(trifluoromethyl)phenyl]amino}-methyl)pyrrolidin-3-amine], the IC50 is, setting by setting: under setting [1], 0.00251 to 0.01 µM; under setting [3], 0.00669 µM.

For `COC(=O)c1ccccc1NCC1(N)CCN(c2ncnc3[nH]cc(C)c23)C1` (centres unmarked) [Example 19], the IC50 was 0.00251 to 0.01 µM under setting [1] and 0.01 µM under setting [3].

Take `Cc1c(Cl)cccc1NCC1(N)CCN(c2ncnc3[nH]cc(Cl)c23)C1` (centres unmarked) [Example 43, 3-{[(3-chloro-2-methylphenyl)amino]methyl}-1-(5-chloro-7H-pyrrolo[2,3-d]pyrimidin-4-yl)pyrrolidin-3-amine]: the IC50 under setting [1] lay within 0.00025 to 0.0025 µM and the IC50 under setting [3] came to 0.002 µM.

Consider `Cc1c[nH]c2ncnc(N3CC[C@](N)(CNC(=O)c4cccc(F)c4F)C3)c12` [Example 87], for which the IC50 by setting is: under setting [1], 0.00251 to 0.01 µM; under setting [2], 0.00758 µM.

Consider `N[C@]1(CNC(=O)c2ccc(Cl)cc2F)CCN(c2ncnc3[nH]cc(Cl)c23)C1` [Example 84, N-{[(3S)-3-amino-1-(5-chloro-7H-pyrrolo[2,3-d]pyrimidin-4-yl)pyrrolidin-3-yl]methyl}-4-chloro-2-fluorobenzamide], for which the IC50 runs as follows: under setting [1], 0.0101 to 0.1 µM; under setting [2], 0.0111 µM.

With `COCCN(CC1(N)CCN(c2ncnc3[nH]cc(C)c23)C1)C(=O)Nc1ccccc1` (centres unmarked) [Example 76, 1-{[3-amino-1-(5-methyl-7H-pyrrolo[2,3-d]pyrimidin-4-yl)pyrrolidin-3-yl]methyl}-1-(2-methoxyethyl)-3-phenylurea], the IC50 was 0.101 to 10 µM under setting [1] and 0.523 µM under setting [2].

With `N[C@]1(CNC(=O)c2cccc(F)c2Cl)CCN(c2ncnc3[nH]cc(Cl)c23)C1` [Example 124, N-{[(3S)-3-amino-1-(5-chloro-7H-pyrrolo[2,3-d]pyrimidin-4-yl)pyrrolidin-3-yl]methyl}-2-chloro-3-fluorobenzamide], the IC50 is 0.00251 to 0.01 µM under setting [1] and 0.00691 µM under setting [2].

With `CN(CC1(N)CCN(c2ncnc3[nH]cc(Cl)c23)C1)c1ccc(Cl)cc1` (centres unmarked) [Example 55, 3-{[(4-chlorophenyl)(methyl)-amino]methyl}-1-(5-chloro-7H-pyrrolo[2,3-d]pyrimidin-4-yl)pyrrolidin-3-amine], the IC50 was 0.0101 to 0.1 µM under setting [1] and 0.012 µM under setting [3].

In the case of `Cc1ccccc1C(=O)NC[C@@]1(N)CCN(c2ncnc3[nH]cc(C)c23)C1` [Example 127, N-{[(3S)-3-amino-1-(5-methyl-7H-pyrrolo[2,3-d]pyrimidin-4-yl)pyrrolidin-3-yl]methyl}-2-methylbenzamide], the IC50 reads like this: under setting [1], 0.0101 to 0.1 µM; under setting [2], 0.0362 µM.

With `N#Cc1c[nH]c2ncnc(N3CC[C@](N)(CNC(=O)c4ccccc4)C3)c12` [Example 111, N-{[(3S)-3-amino-1-(5-cyano-7H-pyrrolo[2,3-d]pyrimidin-4-yl)pyrrolidin-3-yl]methyl}benzamide], the IC50 was 0.0101 to 0.1 µM under setting [1] and 0.0265 µM under setting [2].

For the molecule `Cc1c[nH]c2ncnc(N3CCC(N)(CNc4ccc(Cl)nn4)C3)c12` (centres unmarked) [Example 52, N-{[3-amino-1-(5-methyl-7H-pyrrolo[2,3-d]pyrimidin-4-yl)pyrrolidin-3-yl]methyl}-6-chloropyridazin-3-amine], the IC50 under setting [1] lay in the range of 0.0101 to 0.1 µM and the IC50 under setting [3] came out at 0.082 µM.

Take “(E)-3-(3-trifluoromethyl)styryl)-1-(5-methyl-7H-pyrrolo[2,3-d]pyrimidin-4-yl)-3-amine [Example 68]”: under setting [2], the IC50 was 1.14 µM.

Consider `Cc1c[nH]c2ncnc(N3CC[C@](N)(CNC4=NC(=O)CC=C4)C3)c12` [Example 56, 6-({[(3S)-3-amino-1-(5-methyl-7H-pyrrolo[2,3-d]pyrimidin-4-yl)pyrrolidin-3-yl]methyl}amino)pyridin-2(3H)-one], for which the IC50 under setting [1] lay within 0.0101 to 0.1 µM and the IC50 under setting [3] turned out to be 0.014 µM.

Take “3-{[(4-chlorophenyl)amino]methyl}-1-(1H-pyrrolo[2,3-b]pyridin-4-yl)pyrrolidin-3-amine [Example 17]”: the IC50 under setting [3] was found to be 0.331 µM.

`Cc1ccccc1C(=O)NC[C@@]1(N)CCN(c2ncnc3[nH]cc(Cl)c23)C1` [Example 131]: the IC50 reads like this: under setting [1], 0.00251 to 0.01 µM; under setting [2], 0.01 µM.

Regarding `NC1(CNc2cccc(C(F)(F)F)c2)CCN(c2ccnc3[nH]ccc23)C1` (centres unmarked) [Example 42, 1-(1H-pyrrolo[2,3-b]pyridin-4-yl)-3-({[3-(trifluoromethyl)phenyl]amino}-methyl)pyrrolidin-3-amine], the IC50 is, setting by setting: under setting [1], 0.0101 to 0.1 µM; under setting [3], 0.0354 µM.

As to `CCc1c[nH]c2ncnc(N3CC[C@](N)(CNC(=O)c4c(F)ccc(F)c4F)C3)c12` [Example 132], the IC50 is, setting by setting: under setting [1], 0.0101 to 0.1 µM; under setting [2], 0.0175 µM.

As to `N#Cc1c[nH]c2ncnc(N3CCC(N)(CNc4ccc(Cl)cc4)C3)c12` (centres unmarked) [Example 4, 4-{3-amino-3-[(4-chloro-phenylamino)-methyl]-pyrrolidin-1-yl}-7H-pyrrolo[2,3-d]pyrimidine-5-carbonitrile], the IC50 is 0.0101 to 0.1 µM under setting [1] and 0.041 µM under setting [3].

With `N[C@]1(CNC(=O)c2ccc(F)cc2F)CCN(c2ncnc3[nH]cc(Cl)c23)C1` [Example 82, N-{[(3S)-3-amino-1-(5-chloro-7H-pyrrolo[2,3-d]pyrimidin-4-yl)pyrrolidin-3-yl]methyl}-2,4-difluorobenzamide], the IC50 by setting is: under setting [1], 0.00025 to 0.0025 µM; under setting [2], 0.00163 µM.

`Cc1c[nH]c2ncnc(N3CC[C@](N)(CNC(=O)c4cccc(Cl)c4)C3)c12` [Example 115]: the IC50 under setting [1] lay within 0.00251 to 0.01 µM and the IC50 under setting [2] was 0.00998 µM.

For the molecule `Cc1c[nH]c2ncnc(N3CC[C@](N)(CNC(=O)c4ccccc4Cl)C3)c12` [Example 71, N—(((S)-3-amino-1-(5-methyl-7H-pyrrolo[2,3-d]pyrimidin-4-yl)pyrrolidin-3-yl)methyl)-2-chlorobenzamide], the IC50 was 0.00251 to 0.01 µM under setting [1] and 0.00797 µM under setting [2].

With `CCc1c[nH]c2ncnc(N3CC[C@](N)(CNc4cc(C)on4)C3)c12` [Example 1, N—(((S)-3-amino-1-(5-ethyl-7H-pyrrolo[2,3-d]pyrimidin-4-yl)pyrrolidin-3-yl)methyl)-5-methylisoxazol-3-amine], the IC50 runs as follows: under setting [1], 0.0101 to 0.1 µM; under setting [3], 0.0154 µM.

Turning to `Cc1c[nH]c2ncnc(N3CCC(N)(CNc4ccc(S(=O)(=O)NCc5ccccc5)cc4)C3)c12` (centres unmarked) [Example 12, 4-({[3-amino-1-(5-methyl-7H-pyrrolo[2,3-d]pyrimidin-4-yl)pyrrolidin-3-yl]methyl}amino)-N-benzylbenzenesulfonamide], the IC50 was 0.0101 to 0.1 µM under setting [1] and 0.0105 µM under setting [3].

For the molecule `N#Cc1c[nH]c2ncnc(N3CC[C@](N)(CNC(=O)c4ccc(F)cc4F)C3)c12` [Example 96, N-{[(3S)-3-amino-1-(5-cyano-7H-pyrrolo[2,3-d]pyrimidin-4-yl)pyrrolidin-3-yl]methyl}-2,4-difluorobenzamide], the IC50 under setting [1] fell in the range of 0.00251 to 0.01 µM and the IC50 under setting [2] is 0.00771 µM.

On to `CNC1(CNC(=O)c2ccccc2)CCN(c2ncnc3[nH]cc(Cl)c23)C1` (centres unmarked) [Example 194], for which the IC50 under setting [1] was 0.0101 to 0.1 µM and the IC50 (read-out: Avg Akt kinase, μM (50% inhibition)) was 0.0897 µM.
